Tested on: intimal hyperplasia
Experiment: Patch plasty implantation at the iliac bifurcation, animal model
Assay type: in vivo, mini-pigs of the Gottingen type
Experimental: In a last step the prostheses were implanted in a preliminary animal trial in order to show the impact on intimal hyperplasia. Six mini-pigs of the Gottingen type were used as test animals. The Aa iliacae was prepared by a transperitonial access under general i.v. anaesthesia (Thiopental®) and each a multifunctional and a standard prosthesis were introduced into every animal. All animals obtained an antibiotic prophylaxis (Spizef®) and were anticoagulized with heparin.
As medicaments each of paclitaxel, sirolimus and IS was used twice. We have applied patch plasties as the border line between prosthesis and artery is bigger compared to end-to-end anastomoses and we could thus assess intimal hyperplasia in cross-section very well. The animals were again subjected to surgery after six weeks and the iliac bifurcation was explanted. Samples in longitudinal direction were derived from the patch plastics in the proximal and in the distal region, respectively, and samples in transversal direction were derived from the medium region. These samples were fixed in formaldehyde. The further processing comprised dehydration in an increasing alcohol series until embedding into paraffin. The preparations were cut and stained in HE and Tri-PAS. Apart from the extent of IH, also integration and inflammatory reactions were assessed.

integration of the prosthesis (explanted after 6 weeks): well integrated from outside
SMILES: CC(=O)O[C@H]1C(=O)[C@@]2(C)[C@H]([C@H](OC(=O)c3ccccc3)[C@]3(O)C[C@H](OC(=O)[C@H](O)[C@@H](NC(=O)c4ccccc4)c4ccccc4)C(C)=C1C3(C)C)[C@]1(OC(C)=O)CO[C@@H]1C[C@@H]2O [paclitaxel]
endothelialization (patch plasty, explanted after six weeks): complete suppression of endothelialization
